Laboratory results: US20140294956A1, “GASTRIC RETENTIVE EXTENDED RELEASE PHARMACEUTICAL COMPOSITIONS” (MALLINCKRODT LLC, priority 2011, published 2014)

Assay: Ethanol release testing at 100 rpm paddle speed (Example 32)
Format: physicochemical

CC(=O)Nc1ccc(O)cc1 [APAP]
Percent Release, Mean (0% Ethanol, 15 min): 52.2%
Percent Release, Mean (0% Ethanol, 30 min): 54.6%
Percent Release, Mean (0% Ethanol, 45 min): 56.8%
Percent Release, Mean (0% Ethanol, 60 min): 58.8%
Percent Release, Mean (0% Ethanol, 75 min): 60.8%
Percent Release, Mean (0% Ethanol, 90 min): 62.6%
Percent Release, Mean (0% Ethanol, 120 min): 66.0%
Percent Release, Mean (0% Ethanol, 240 min): 78.6%
Percent Release, Mean (0% Ethanol, 480 min): 95.5%
Percent Release, Mean (5% Ethanol, 15 min): 52.6%
Percent Release, Mean (5% Ethanol, 30 min): 55.1%
Percent Release, Mean (5% Ethanol, 45 min): 57.1%
Percent Release, Mean (5% Ethanol, 60 min): 58.9%
Percent Release, Mean (5% Ethanol, 75 min): 60.7%
Percent Release, Mean (5% Ethanol, 90 min): 62.3%
Percent Release, Mean (5% Ethanol, 120 min): 65.5%
Percent Release, Mean (5% Ethanol, 240 min): 77.2%
Percent Release, Mean (5% Ethanol, 480 min): 94.4%
Percent Release, Mean (10% Ethanol, 15 min): 51.7%
Percent Release, Mean (10% Ethanol, 30 min): 54.1%
Percent Release, Mean (10% Ethanol, 45 min): 56.0%
Percent Release, Mean (10% Ethanol, 60 min): 57.8%
Percent Release, Mean (10% Ethanol, 75 min): 59.5%
Percent Release, Mean (10% Ethanol, 90 min): 61.1%
Percent Release, Mean (10% Ethanol, 120 min): 64.1%
Percent Release, Mean (10% Ethanol, 240 min): 75.5%
Percent Release, Mean (10% Ethanol, 480 min): 93.5%
Percent Release, Mean (20% Ethanol, 15 min): 50.2%
Percent Release, Mean (20% Ethanol, 30 min): 53.4%
Percent Release, Mean (20% Ethanol, 45 min): 55.5%
Percent Release, Mean (20% Ethanol, 60 min): 57.3%
Percent Release, Mean (20% Ethanol, 75 min): 59.0%
Percent Release, Mean (20% Ethanol, 90 min): 60.5%
Percent Release, Mean (20% Ethanol, 120 min): 63.3%
Percent Release, Mean (20% Ethanol, 240 min): 76.0%
Percent Release, Mean (20% Ethanol, 480 min): 91.9%
Percent Release, Mean (40% Ethanol, 15 min): 16.7%
Percent Release, Mean (40% Ethanol, 30 min): 30.4%
Percent Release, Mean (40% Ethanol, 45 min): 38.5%
Percent Release, Mean (40% Ethanol, 60 min): 43.1%
Percent Release, Mean (40% Ethanol, 75 min): 46.1%
Percent Release, Mean (40% Ethanol, 90 min): 48.3%
Percent Release, Mean (40% Ethanol, 120 min): 51.1%
Percent Release, Mean (40% Ethanol, 240 min): 60.8%
Percent Release, Mean (40% Ethanol, 480 min): 77.2%
